Values after ≈ are worked out from the molar mass of the structure shown.
Legend:
Format in all cases: functional
Candida albicans = assay: Antimicrobial activity against Candida albicans ATCC 90028 by serial plate dilution method
Aspergillus niger = assay: Antimicrobial activity against Aspergillus niger ATCC 9029 by serial plate dilution method
Escherichia coli = assay: Antimicrobial activity against Escherichia coli ATCC 25922 by serial plate dilution method
Staphylococcus aureus = assay: Antimicrobial activity against Staphylococcus aureus ATCC 25923 by serial plate dilution method

Row | SMILES | MIC (Candida albicans) [µM] | MIC (Aspergillus niger) [µM] | MIC (Escherichia coli) [µM] | MIC (Staphylococcus aureus) [µM]
1 | NNc1nc2ccc(Cl)cc2s1 | 501 (≈ 100 µg/mL) | 1000 (≈ 200 µg/mL) | 501 (≈ 100 µg/mL) | 250 (≈ 50 µg/mL)
2 | CC1=NN(c2nc3ccc(Cl)cc3s2)C(=O)/C1=N/Nc1ccccc1C | 522 (≈ 200 µg/mL) | 261 (≈ 100 µg/mL) | 261 (≈ 100 µg/mL) | 131 (≈ 50.1 µg/mL)
3 | Cc1nn(-c2nc3ccc(Cl)cc3s2)c(C)c1/N=N/c1ccc(C(=O)O)cc1 | 243 (≈ 100 µg/mL) | 243 (≈ 100 µg/mL) | 243 (≈ 100 µg/mL) | 122 (≈ 50.1 µg/mL)
4 | Cc1nn(-c2nc3ccc(Cl)cc3s2)c(C)c1/N=N/c1ccccc1C(=O)O | 243 (≈ 100 µg/mL) | 122 (≈ 50.1 µg/mL) | 487 (≈ 200 µg/mL) | 122 (≈ 50.1 µg/mL)
5 | Cc1nn(-c2nc3ccc(Cl)cc3s2)c(C)c1/N=N/c1ccccc1O | 261 (≈ 100 µg/mL) | 522 (≈ 200 µg/mL) | 522 (≈ 200 µg/mL) | 522 (≈ 200 µg/mL)
6 | COc1ccc(/N=N/c2c(C)nn(-c3nc4ccc(Cl)cc4s3)c2C)cc1 | 63 (≈ 25.1 µg/mL) | 504 (≈ 200 µg/mL) | 252 (≈ 100 µg/mL) | 252 (≈ 100 µg/mL)
7 | Cc1nn(-c2nc3ccc(Cl)cc3s2)c(C)c1/N=N/c1ccc(Br)cc1 | 112 (≈ 50.1 µg/mL) | 56 (≈ 25 µg/mL) | 112 (≈ 50.1 µg/mL) | 112 (≈ 50.1 µg/mL)
8 | Cc1nn(-c2nc3ccc(Cl)cc3s2)c(C)c1/N=N/c1ccc(F)cc1 | 260 (≈ 100 µg/mL) | 130 (≈ 50.1 µg/mL) | 32.5 (≈ 12.5 µg/mL) | 64.9 (≈ 25.1 µg/mL)
9 | Cc1nn(-c2nc3ccc(Cl)cc3s2)c(C)c1/N=N/c1ccc(Cl)cc1 | 249 (≈ 100 µg/mL) | 31.2 (≈ 12.5 µg/mL) | 125 (≈ 50.2 µg/mL) | 15.6 (≈ 6.27 µg/mL)
10 | Cc1nn(-c2nc3ccc(Cl)cc3s2)c(C)c1/N=N/c1ccccc1Cl | 125 (≈ 50.2 µg/mL) | 125 (≈ 50.2 µg/mL) | 249 (≈ 100 µg/mL) | 499 (≈ 201 µg/mL)
11 | Cc1ccc(/N=N/c2c(C)nn(-c3nc4ccc(Cl)cc4s3)c2C)cc1 | 131 (≈ 50.1 µg/mL) | 262 (≈ 100 µg/mL) | 65.6 (≈ 25.1 µg/mL) | 131 (≈ 50.1 µg/mL)
12 | Cc1ccccc1/N=N/c1c(C)nn(-c2nc3ccc(Cl)cc3s2)c1C | 262 (≈ 100 µg/mL) | 525 (≈ 200 µg/mL) | 262 (≈ 100 µg/mL) | 262 (≈ 100 µg/mL)
13 | CC(=O)N1CCN(c2ccc(OCC3COC(Cn4ccnc4)(c4ccc(Cl)cc4Cl)O3)cc2)CC1 (stereo unspecified) [KETOCONAZOLE] | 5.88 (≈ 3.12 µg/mL) | 11.8 (≈ 6.25 µg/mL) |  | 

Continued, values first:

Row | MIC (Candida albicans) [µM] | MIC (Aspergillus niger) [µM] | MIC (Escherichia coli) [µM] | MIC (Staphylococcus aureus) [µM] | SMILES
14 | 251 (≈ 100 µg/mL) | 501 (≈ 200 µg/mL) | 251 (≈ 100 µg/mL) | 125 (≈ 50.1 µg/mL) | COc1ccc(N/N=C2/C(=O)N(c3nc4ccc(Cl)cc4s3)N=C2C)cc1
15 | 112 (≈ 50.1 µg/mL) | 223 (≈ 100 µg/mL) | 112 (≈ 50.1 µg/mL) | 13.9 (≈ 6.26 µg/mL) | CC1=NN(c2nc3ccc(Cl)cc3s2)C(=O)/C1=N/Nc1ccc(Br)cc1
16 | 64.6 (≈ 25 µg/mL) | 129 (≈ 50.1 µg/mL) | 129 (≈ 50.1 µg/mL) | 32.3 (≈ 12.5 µg/mL) | CC1=NN(c2nc3ccc(Cl)cc3s2)C(=O)/C1=N/Nc1ccc(F)cc1
17 | 124 (≈ 50.1 µg/mL) | 124 (≈ 50.1 µg/mL) | 62 (≈ 25.1 µg/mL) | 31 (≈ 12.5 µg/mL) | CC1=NN(c2nc3ccc(Cl)cc3s2)C(=O)/C1=N/Nc1ccc(Cl)cc1
18 | 248 (≈ 100 µg/mL) | 248 (≈ 100 µg/mL) | 124 (≈ 50.2 µg/mL) | 62 (≈ 25.1 µg/mL) | CC1=NN(c2nc3ccc(Cl)cc3s2)C(=O)/C1=N/Nc1ccccc1Cl
19 | 522 (≈ 200 µg/mL) | 261 (≈ 100 µg/mL) | 131 (≈ 50.1 µg/mL) | 65.3 (≈ 25.1 µg/mL) | CC1=NN(c2nc3ccc(Cl)cc3s2)C(=O)/C1=N/Nc1ccc(C)cc1
20 | 242 (≈ 100 µg/mL) | 484 (≈ 200 µg/mL) | 242 (≈ 100 µg/mL) | 121 (≈ 50.1 µg/mL) | CC1=NN(c2nc3ccc(Cl)cc3s2)C(=O)/C1=N/Nc1ccc(C(=O)O)cc1
21 | 121 (≈ 50.1 µg/mL) | 484 (≈ 200 µg/mL) | 484 (≈ 200 µg/mL) | 242 (≈ 100 µg/mL) | CC1=NN(c2nc3ccc(Cl)cc3s2)C(=O)/C1=N/Nc1ccccc1C(=O)O
22 | 260 (≈ 100 µg/mL) | 519 (≈ 200 µg/mL) | 260 (≈ 100 µg/mL) | 130 (≈ 50.1 µg/mL) | CC1=NN(c2nc3ccc(Cl)cc3s2)C(=O)/C1=N/Nc1ccccc1O
